# Literature values as cited in patent publication US9107941B2, “Methods and compositions for reducing L-pipecolic acid effects in animals” (SarTec Corporation, priority 2006, dated 2015).
# Assays:
# [1] = system: chicks; settings: ICV injection
# [2] = system: neuronal cells
compound,measurement,setting,value
"O=C(O)[C@@H]1CCCCN1 [L-PIP, L-pipecolic acid]",food intake,[1],inhibited food intake
same,sleep-like behavior,[1],induced sleep-like behavior
same,apoptosis in neuronal cells,[2],induce apoptosis
